Experimental data taken from patent US9353082B2, “Pharmaceutical compounds” (BIAL—PORTELA & CA, S.A., priority 2008, dated 2016).

Assays:
FAAH [1] = biological target: T1, FAAH (Mus musculus, UniProt O08914); assay: In vivo FAAH inhibition after oral dosing, remaining activity in brain homogenate (BRh, central nervous tissue); parameters: species or system NMRI mice; conditions: 3 mg/kg oral, 8 h; for In Vivo BRh 3 mg · kg · 8 h (remaining FAAH activity): brain homogenate, low value = strong inhibitor; for FAAH BRh 3 mg · kg · 8 h: in vivo, mouse brain, remaining enzymatic activity
T1 construct: A fragment of liver, left lung lobe and brain without cerebellum were removed; from tissue; host or cells: male NMRI mice; brain (without cerebellum) and liver homogenates
T1 sequence (O08914 1-579): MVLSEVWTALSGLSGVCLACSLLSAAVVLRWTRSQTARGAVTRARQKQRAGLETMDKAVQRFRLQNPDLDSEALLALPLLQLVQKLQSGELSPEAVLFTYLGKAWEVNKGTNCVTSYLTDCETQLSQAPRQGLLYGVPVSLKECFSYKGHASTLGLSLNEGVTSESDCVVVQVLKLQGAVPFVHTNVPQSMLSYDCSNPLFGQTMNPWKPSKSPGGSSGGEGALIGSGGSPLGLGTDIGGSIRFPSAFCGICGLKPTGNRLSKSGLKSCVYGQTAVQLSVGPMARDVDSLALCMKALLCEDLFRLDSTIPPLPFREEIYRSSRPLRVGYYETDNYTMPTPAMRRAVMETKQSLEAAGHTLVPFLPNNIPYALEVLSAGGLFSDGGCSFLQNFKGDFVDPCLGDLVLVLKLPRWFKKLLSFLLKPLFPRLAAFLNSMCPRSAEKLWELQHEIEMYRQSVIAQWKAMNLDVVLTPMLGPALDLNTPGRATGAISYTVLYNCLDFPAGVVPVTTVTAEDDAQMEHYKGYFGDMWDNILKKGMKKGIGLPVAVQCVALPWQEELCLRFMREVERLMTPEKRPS
How it was run: (§1)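 Male NMRI mice, fasted overnight, got 30 or 3 mg/kg compound orally (0.5% CMC suspension or water) and were compared with vehicle controls. Brain (no cerebellum) and liver homogenates were incubated with 2 μM AEA plus 5 nM 3H-AEA at 37 °C, 10 min for brain and 7 min for liver. Remaining FAAH activity is % of vehicle after blank subtraction.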

FAAH [2] = biological target: T1, FAAH; assay: In vivo FAAH inhibition after oral dosing, remaining activity in liver homogenate (LVh, peripheral tissue); parameters: species or system NMRI mice; conditions: 3 mg/kg oral, 8 h; for FAAH LVh 3 mg · kg · 8 h: in vivo, mouse liver, remaining enzymatic activity; for In Vivo LVh 3 mg · kg · 8 h (remaining FAAH activity): liver homogenate, low value = strong inhibitor
How it was run: as §1

[3] = biological target: T2, monoacylglycerol lipase (MAGL) (Rattus norvegicus, UniProt Q8R431); assay: MAGL activity in rat cerebella cytosol (CRBcyt), hydrolysis of [3H] 2-OG; type: biochemical, WISTAR rats; conditions: 12.5 uM compound, remaining MAGL activity
T2 construct: cerebella cytosol (CRBcyt) fractions, previously obtained from adult WISTAR rats; from tissue; host or cells: adult Wistar rat cerebella, cytosol fraction
T2 sequence (Q8R431 1-303): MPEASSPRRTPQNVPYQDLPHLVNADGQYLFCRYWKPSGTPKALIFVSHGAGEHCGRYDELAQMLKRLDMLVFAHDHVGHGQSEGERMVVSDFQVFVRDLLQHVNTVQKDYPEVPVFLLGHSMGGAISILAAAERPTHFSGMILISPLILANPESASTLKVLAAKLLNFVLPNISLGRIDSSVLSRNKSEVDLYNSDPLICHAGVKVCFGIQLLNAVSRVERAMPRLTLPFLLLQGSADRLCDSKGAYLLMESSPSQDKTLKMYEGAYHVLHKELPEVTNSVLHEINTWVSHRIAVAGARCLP
Description: (§2) FAAH inhibition was determined as described above. Inhibition of monoacylglycerol lipase (MAGL) and carboxylesterase (CE) was performed according to the protocols described below. The controls for both in vitro and in vivo were the reaction mix minus the test compounds. Therefore, a low value in Table 2 below for the test compounds indicates a strong inhibitor.
MAGL activity measurement was based on rate of hydrolysis of [^3H] 2-OG (glycerol labeled) as substrate. Briefly, cerebella cytosol (CRBcyt) fractions, previously obtained from adult WISTAR rats, were diluted to appropriate assay protein concentrations in Tris-HCl buffer (10 mM, pH 7.2) containing 1 mM EDTA, and were added to assay tubes containing test compound. Blanks contained assay buffer instead of cytosol samples were used as control. […] The final assay contained 0.125% w v^−1 fatty acid-free BSA. After the incubation phase, reactions were stopped by adding 400 μL chloroform:methanol (1/1 v v^−1), vortex mixing the tubes two times and placing them on ice. Phases were separated by centrifugation and 200 μL aliquots of the methanol/buffer phase were taken and tritium content assayed by liquid scintillation spectroscopy with quench correction.

carboxylesterase (CE) [4] = assay: Carboxylesterase (CE) activity in mouse liver microsomes (LVms), p-nitrophenyl acetate; type: biochemical; conditions: 10 uM compound, read 10 min after substrate, remaining CE activity
Description: as §2
(§3) CE activity measurement is based on the formation of p-nitrophenol from p-nitrophenyl acetate. Briefly, in 96-well plates 8 μg/ml of rat or mouse liver microsomes (LVms) were incubated with 10 μM FAAH inhibitors for 15 min and then the substrate, p-nitrophenyl acetate, was added to a final concentration of 1 mM. The plate was read at 405 nm 10 min after substrate addition for the appearance of p-nitrophenol using a spectrophotometer. The carboxylesterase activity in microsome extracts without inhibitor added were set at 100% as control and the remaining CE activities after incubation with inhibitors were calculated relative to the control.

carboxylesterase (CE) [5] = assay: Carboxylesterase (CE) activity in rat liver microsomes (LVms), p-nitrophenyl acetate; type: biochemical; conditions: 10 uM compound, read 10 min after substrate, remaining CE activity
Description: as §2, §3

SMILES	In Vivo BRh 3 mg · kg · 8 h (remaining FAAH activity) (FAAH [1])	FAAH BRh 3 mg · kg · 8 h (FAAH [1])	FAAH LVh 3 mg · kg · 8 h (FAAH [2])	In Vivo LVh 3 mg · kg · 8 h (remaining FAAH activity) (FAAH [2])	MAGL Rat CRBcyto 12.5 uM 8 min [3]	CE Mou LVms 10 uM 10 min (carboxylesterase (CE) [4])	CE Rat LVms 10 uM 10 min (carboxylesterase (CE) [5])
CN(C(=O)n1cnc(-c2ccc3oc(=O)[nH]c3c2)c1)C1CCCC1 [Compound 564, N-cyclopentyl-N-methyl-4-(2-oxo-2,3-dihydrobenzo[d]oxazol-5-yl)-1H-imidazole-1-carboxamide]	37.6 % of control	37.6 % of control	2.3 % of control	2.3 % of control	91.6 % of control	87.4 % of control	96.1 % of control
CN(C(=O)n1cnc(-c2ccc(S(C)(=O)=O)cc2)c1)C1CCN(Cc2ccccc2)CC1 [Compound 567, N-(1-benzylpiperidin-4-yl)-N-methyl-4-(4-(methylsulfonyl)phenyl)-1H-imidazole-1-carboxamide]	87.8 % of control	87.8 % of control	6.3 % of control	6.3 % of control	94.2 % of control	88.6 % of control	97.8 % of control
